Experimental data from US9718790B2, “Triazine derivative and pharmaceutical composition having an analgesic activity comprising the same” (SHIONOGI & CO., LTD., priority 2010, dated 2017).
Values joined by “and” are separate entries in the source; they are usually repeats but may differ in a detail not shown here. Identical values can stand only once.

Biological target: human P2X3 receptor (Homo sapiens (Human), UniProt P56373)
Assay: Evaluation of human P2X3 receptor inhibitory activity (Fluo-3 calcium fluorescence, FDSS 3000, ATP stimulation);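 also: stimulus was 50 nM ATP with fluorescence followed for 3 min, and the response per well was peak post-ATP fluorescence divided by the reading at measurement start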
Assay type: cell-based
[1] = human P2X3 receptor, Test Example 1
[2] = C6BU-1 cells stably expressing human P2X3 receptor, Fluo-3 fluorescence, FDSS 3000
[3] = C6BU-1 cells stably expressing human P2X3 receptor

Sequence of human P2X3 receptor (P56373 whole entry): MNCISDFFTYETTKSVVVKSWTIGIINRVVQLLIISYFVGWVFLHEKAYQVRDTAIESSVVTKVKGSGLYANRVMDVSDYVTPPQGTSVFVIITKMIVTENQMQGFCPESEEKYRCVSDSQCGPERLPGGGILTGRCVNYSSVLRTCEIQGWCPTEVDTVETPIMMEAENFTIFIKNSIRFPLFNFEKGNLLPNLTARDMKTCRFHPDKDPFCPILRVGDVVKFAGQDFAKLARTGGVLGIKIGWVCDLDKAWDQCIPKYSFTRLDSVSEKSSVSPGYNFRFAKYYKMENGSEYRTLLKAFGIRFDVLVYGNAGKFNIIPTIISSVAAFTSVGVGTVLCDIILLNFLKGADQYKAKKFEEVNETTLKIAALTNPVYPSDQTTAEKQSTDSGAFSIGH

SMILES	IC50 [1] [nM]	IC50 [3] [nM]	also measured
COC(=O)[C@@H](C)Cn1c(=O)[nH]/c(=N\c2cc(Cl)cc(Cl)c2)n(Cc2ccc(C)cc2)c1=O [Compound I-1497]	619		
CC(C)Cn1c(=O)oc2cc(Nc3nc(=O)n(C(C)C)c(=O)n3Cc3ccc(Cl)cc3)ccc21 [Compound I-0268]			IC50 [2]: 861 nM
CCc1nc2ccc(/N=c3\[nH]c(=O)n(CC(=O)NCCO)c(=O)n3Cc3ccc(Cl)cc3)cc2s1 [Compound I-1808]			IC50 [2]: 4 nM
CCCCCOc1ccc(/N=c2\[nH]c(=O)n(C[C@H](C)C(=O)O)c(=O)n2Cc2ccc(C)cc2)cc1 [Compound I-1065]			IC50 [2]: 85 nM
O=c1[nH]/c(=N\c2ccc(Oc3noc(C4CC4)n3)cc2)n(Cc2ccc(Cl)cc2)c(=O)n1CC(CO)CO [Compound I-2595]	27		
CC[C@@H](Cn1c(=O)[nH]/c(=N\c2ccc(OC(C)C)c(C)c2)n(Cc2ccc(Cl)cc2)c1=O)C(=O)O [Compound I-0889]	53		
CNC(=O)c1cc(Oc2ccc(/N=c3\[nH]c(=O)n(C4CC4)c(=O)n3Cc3ccc(Cl)cc3)cc2)ccn1 [Compound I-2309]	2		
CC(C)Oc1ccc(/N=c2\[nH]c(=O)n(CC(=O)OC3CCOCC3)c(=O)n2Cc2ccc(Cl)cc2)cc1Cl [Compound I-0673]		8	
O=c1[nH]/c(=N\c2ccc(Oc3cnccn3)cc2)n(Cc2ccc(Cl)cc2)c(=O)n1CC(CO)CO [Compound I-2710]	6		
COC(=O)[C@H](C)[C@H](C)n1c(=O)[nH]/c(=N\c2ccc3nc(C)[nH]c3c2)n(Cc2ccc(Cl)cc2)c1=O [Compound I-1795]			IC50 [2]: 795 nM
CC(=O)NCCn1c(=O)[nH]/c(=N\c2ccc(O[C@H](C)C(F)(F)F)cc2)n(Cc2ccc(Cl)cc2)c1=O [Compound I-1617]			IC50 [2]: 27 nM
O=C(O)c1cc(Oc2ccc(/N=c3\[nH]c(=O)[nH]c(=O)n3Cc3ccc(Cl)cc3)cc2)ccn1 [Compound I-1883]			IC50 [2]: 7 nM
CCn1c(=O)[nH]/c(=N\c2ccc(Oc3ccc(NCC(=O)NC)nc3)cc2)n(Cc2ccc(Cl)cc2)c1=O [Compound I-2626]	5		
CCCn1c(=O)[nH]/c(=N\c2ccc(Oc3ccc(C#N)nc3)cc2)n(Cc2ccc(Cl)cc2)c1=O [Compound I-2230]	2		
CC[C@H](C)Oc1ccc(/N=c2\[nH]c(=O)n(C[C@H](C)C(=O)OC)c(=O)n2Cc2ccc(Cl)cc2)cc1 [Compound I-0728]		14	
Cn1c(=O)[nH]/c(=N\c2ccc(Oc3ncc(C(=O)O)s3)cc2)n(Cc2ccc(Cl)cc2)c1=O [Compound I-2409]	14		
CC(C)Oc1ccc(/N=c2\[nH]c(=O)n(CCCS(=O)(=O)O)c(=O)n2Cc2ccc(Cl)cc2)cc1F [Compound I-0645]		102	
Cc1ccc(Cn2c(=O)n(CCC(=O)O)c(=O)[nH]/c2=N\c2ncc(-c3ccccc3)s2)cc1 [Compound I-1725]			IC50 [2]: 953 nM
Cc1ccc(Cn2c(=O)n(C[C@H](C)C(=O)O)c(=O)[nH]/c2=N\c2ccc(CC(C)(C)F)c(Cl)c2)cc1 [Compound I-1531]	25		
CCCc1nc2ccc(/N=c3\[nH]c(=O)n([C@@H](C)[C@@H](C)C(=O)O)c(=O)n3Cc3ccc(Cl)cc3)cc2s1 [Compound I-1792]			IC50 [2]: 20 nM
COC(=O)[C@@H](C)Cn1c(=O)[nH]/c(=N\c2ccc3c(c2)CCC3)n(Cc2ccc(Cl)cc2)c1=O [Compound I-0769]		207	

SMILES	IC50 [1] [nM]	IC50 [3] [nM]	also measured
C[C@@H](Cn1c(=O)[nH]/c(=N\c2ccc3c(c2)CCC3)n(Cc2ccc(Cl)cc2)c1=O)C(=O)O [Compound I-0772]		477	
CCn1c(=O)[nH]/c(=N\c2ccc(Oc3ccnc(C)c3)cc2)n(Cc2ccc(Cl)cc2)c1=O [Compound I-1598]			IC50 [2]: 5 nM
CCn1c(=O)[nH]/c(=N\c2ccc(Oc3cccc(NC(C)=O)c3)cc2)n(Cc2ccc(Cl)cc2)c1=O [Compound I-2139]		22	
Cc1ccc(Cn2c(=O)n(CCC(N)=O)c(=O)[nH]/c2=N\c2ccc(Oc3ncccn3)cc2)cc1 [Compound I-2566]	17		
CCOC(=O)C1(Cn2c(=O)[nH]/c(=N\c3ccc(OC(C)C)c(C)c3)n(Cc3ccc(Cl)cc3)c2=O)CC1 [Compound I-0694]		13	
COC(=O)[C@@H](C)[C@@H](C)n1c(=O)[nH]/c(=N\c2ccc(OC(C)C)cc2)n(Cc2ccc(C)cc2)c1=O [Compound I-1310]		66	
Cc1ccc(Cn2c(=O)n(CCC(=O)O)c(=O)[nH]/c2=N\c2ccc(Oc3cc(C#N)ccn3)cc2)cc1 [Compound I-2661]	15		
COc1ccc(Cn2c(=O)[nH]/c(=N\c3ccc(OC(C)C)c(F)c3)n(Cc3ccc(Cl)cc3)c2=O)cn1 [Compound I-0641]		26	
CCCc1ccc(/N=c2\[nH]c(=O)n(C[C@H](C)C(=O)OC)c(=O)n2Cc2ccc(Cl)cc2)cc1 [Compound I-0621]		58	
CO/N=C(\Cn1c(=O)[nH]/c(=N\c2ccc(OC(C)C)c(F)c2)n(Cc2ccc(Cl)cc2)c1=O)C(=O)O [Compound I-0737, 1-(4-chlorobenzyl)-6-(3-fluoro-4-isopropoxyphenylimino)-3-(2-hydroxycarbonyl-2-methoxyiminoethyl)-1,3,5-triazinane-2,4-dion]		140	
CCOC(=O)CCn1c(=O)[nH]/c(=N\c2ccc(Oc3ccon3)cc2)n(Cc2ccc(Cl)cc2)c1=O [Compound I-2434]	4		
CCn1c(=O)[nH]/c(=N\c2ccc(Oc3ccnc(C(=O)NC)c3)c(OC)c2)n(Cc2ccc(Cl)cc2)c1=O [Compound I-2251]	5		
CCn1c(=O)[nH]/c(=N\c2ccc(Oc3cccc(Cl)n3)cc2)n(Cc2ccc(Cl)cc2)c1=O [Compound I-2441]	10		
Cc1ccc(Cn2c(=O)n(C[C@H](C)C(=O)O)c(=O)[nH]/c2=N\c2ccc(CC3CC3)c(Cl)c2)cc1 [Compound I-1513]	10		
Cc1ccc(Cn2c(=O)n(CCC(=O)O)c(=O)[nH]/c2=N\c2ccc(Oc3cccc(C#N)n3)cc2)cc1 [Compound I-2634]	11		
Cc1cc(/N=c2\[nH]c(=O)n(C[C@H](C)C(=O)O)c(=O)n2Cc2ccc(Cl)cc2)ccc1CC(C)C [Compound I-0949]			IC50 [2]: 8 nM and 21 nM
Cc1ccc(Cn2c(=O)n(CCC(=O)O)c(=O)[nH]/c2=N\c2cccc(Cl)c2)cc1 [Compound I-2047]		384	
CCn1c(=O)[nH]/c(=N\[C@H]2CC[C@H](Oc3ccnc(C(=O)NC)c3)CC2)n(Cc2ccc(Cl)cc2)c1=O [Compound I-2246]	790		
CCn1c(=O)[nH]/c(=N\c2ccc(Oc3ccnc(NC(=O)OC(C)(C)C)c3)cc2)n(Cc2ccc(Cl)cc2)c1=O [Compound I-2304]	29		
Cc1cc(/N=c2\[nH]c(=O)n(C[C@H](C)C(=O)NCCO)c(=O)n2Cc2ccc(Cl)cc2)ccc1OC(C)C [Compound I-0723]		24	
Cc1cc(/N=c2\[nH]c(=O)n(C[C@@H](C)C(=O)O)c(=O)n2CC2CCCCC2)ccc1OC(C)C [Compound I-0647]		316	

SMILES	IC50 [1] [nM]	IC50 [3] [nM]	also measured
CCn1c(=O)[nH]/c(=N\c2ccc(Oc3ccnc(NCCO)c3)cc2)n(Cc2ccc(Cl)cc2)c1=O [Compound I-2588]	11		
CC(=O)Nc1ccc(Oc2ccc(/N=c3\[nH]c(=O)n(C)c(=O)n3Cc3ccc(Cl)cc3)cc2)cn1 [Compound I-2429]	5		
CC(C)Oc1ccc(/N=c2\[nH]c(=O)n(CC3(CC(=O)O)CC3)c(=O)n2Cc2ccc(Cl)cc2)cc1Cl [Compound I-0981]			IC50 [2]: 10 nM
CCn1c(=O)[nH]/c(=N\c2ccc3nc(Cl)sc3c2)n(Cc2ccc(Cl)cc2)c1=O [Compound I-2321]	11		
Cc1nsc(Oc2ccc(/N=c3\[nH]c(=O)n(CC(=O)O)c(=O)n3Cc3ccc(Cl)cc3)cc2)n1 [Compound I-2579]	71		
Cc1cc(/N=c2\[nH]c(=O)n(CCCC(=O)NCCO)c(=O)n2Cc2ccc(Cl)cc2)ccc1OC(C)C [Compound I-0788]		32	
CCc1ccc(/N=c2\[nH]c(=O)n(C[C@H](C)C(=O)OC)c(=O)n2Cc2ccc(Cl)cc2)cc1C [Compound I-0815]		189	
CCCOc1ccc(/N=c2\[nH]c(=O)n(C[C@H](C)C(=O)O)c(=O)n2Cc2ccc(C)cc2)cc1Cl [Compound I-0840]	17		
CCn1c(=O)[nH]/c(=N\c2ccc(Oc3ccccc3C(=O)O)cc2)n(Cc2ccc(Cl)cc2)c1=O [Compound I-1992]		240	
O=c1[nH]/c(=N\c2ccc(Oc3cc(CO)on3)cc2)n(Cc2ccc(Cl)cc2)c(=O)n1CCO [Compound I-2118]		35	
CCc1oc2ccc(/N=c3\[nH]c(=O)n(CCO)c(=O)n3Cc3ccc(Cl)cc3)cc2c1C [Compound I-1633]			IC50 [2]: 16 nM
Cc1ccc(Cn2c(=O)n(CCC(=O)O)c(=O)[nH]/c2=N\c2nc3ccccc3s2)cc1 [Compound I-1674]			IC50 [2]: 971 nM
O=c1[nH]/c(=N\c2ccc(Oc3cncc(F)c3)cc2)n(Cc2ccc(Cl)cc2)c(=O)n1C[C@H](O)CO [Compound I-2334]	5		
Cc1nsc(Oc2ccc(/N=c3\[nH]c(=O)n(CC(=O)NCCO)c(=O)n3Cc3ccc(Cl)cc3)cc2)n1 [Compound I-2678]	3		
Cn1ccc(Oc2ccc(/N=c3\[nH]c(=O)n(CCCO)c(=O)n3Cc3ccc(Cl)cc3)cc2)n1 [Compound I-2413]	36		
O=C(O)c1cc(Oc2ccc(/N=c3\[nH]c(=O)n(CCO)c(=O)n3Cc3ccc(Cl)cc3)cc2)no1 [Compound I-2117]		23	
CCOC(=O)C1(Cn2c(=O)[nH]/c(=N\c3ccc4oc(CC)c(C)c4c3)n(Cc3ccc(C)cc3)c2=O)CC1 [Compound I-1546]	7		
COC(=O)[C@H](C)[C@H](C)n1c(=O)[nH]/c(=N\c2ccc(CC(C)C)c(Cl)c2)n(Cc2ccc(C)cc2)c1=O [Compound I-1436]		54	
CCOC(=O)/C(Cn1c(=O)[nH]/c(=N\c2ccc(OC(C)C)c(F)c2)n(Cc2ccc(Cl)cc2)c1=O)=N/OC [Compound I-0735, 1-(4-chlorobenzyl)-6-(3-fluoro-4-isopropoxyphenylimino)-3-(2-ethoxycarbonyl-2-methoxyiminoethyl)-1,3,5-triazinane-2,4-dion]		7	
